ChEMBL document CHEMBL1926637, “Stereoselective synthesis and QSAR study of cytotoxic 2-(4-oxo-thiazolidin-2-ylidene)-2-cyano-N-arylacetamides” (Eur J Med Chem, 2012)

What was measured:
Assay type in all cases: functional, cell-based
HCT-116 = test: Cytotoxicity against human HCT116 cells after 48 hrs by sulforhodamine B assay; conditions: HCT-116, 48 h
MCF7 = test: Cytotoxicity against human MCF7 cells after 48 hrs by sulforhodamine B assay; conditions: MCF7, 48 h
HepG2 = test: Cytotoxicity against human HepG2 cells after 48 hrs by sulforhodamine B assay; conditions: HepG2, 48 h

Compound	IC50 (HCT-116)	IC50 (MCF7)	IC50 (HepG2)
COc1ccc(N/N=C2\S/C(=C(/C#N)C(=O)Nc3ccccc3)N(c3ccccc3)C2=O)cc1	46.4 µM	17.6 µM	–
Cc1ccc(NC(=O)/C(C#N)=c2\s/c(=C\c3ccccc3)c(=O)n2-c2ccccc2)cc1	11 µM	55.5 µM	38.2 µM
N#C/C(C(=O)Nc1ccc(Cl)cc1)=c1/s/c(=C\c2ccc(Cl)cc2)c(=O)n1-c1ccccc1	9.15 µM	> 102 µM	> 102 µM
N#C/C(C(=O)Nc1ccccc1)=c1/s/c(=C\c2ccccc2O)c(=O)n1-c1ccccc1	7.8 µM	8.85 µM	83 µM
Cc1ccc(NC(=O)/C(C#N)=C2\S/C(=N\Nc3ccccc3)C(=O)N2c2ccccc2)cc1	> 110 µM	–	24.2 µM
N#C/C(C(=O)Nc1ccccc1)=C1/S/C(=N\Nc2ccccc2)C(=O)N1c1ccccc1	> 114 µM	–	18.8 µM
N#C/C(C(=O)Nc1ccccc1)=c1/s/c(=C\c2ccccc2)c(=O)n1-c1ccccc1	33.3 µM	75.3 µM	11 µM
COc1cccc2c1C(=O)c1c(O)c3c(c(O)c1C2=O)C[C@@](O)(C(=O)CO)C[C@@H]3O[C@H]1C[C@H](N)[C@H](O)[C@H](C)O1 [DOXORUBICIN]	6.86 µM	–	7.36 µM
Cc1ccc(NC(=O)/C(C#N)=C2\S/C(=N\Nc3ccc(Cl)cc3)C(=O)N2c2ccccc2)cc1	14.9 µM	> 102 µM	–
Cc1ccc(NC(=O)/C(C#N)=c2\s/c(=C\c3ccc(Cl)cc3)c(=O)n2-c2ccccc2)cc1	28.4 µM	28.6 µM	48.3 µM
COc1ccc(/C=c2\s/c(=C(/C#N)C(=O)Nc3ccc(C)cc3)n(-c3ccccc3)c2=O)cc1	9.95 µM	> 107 µM	37.4 µM
N#C/C(C(=O)Nc1ccc(Cl)cc1)=c1/s/c(=C\c2ccccc2)c(=O)n1-c1ccccc1	38.9 µM	77.5 µM	49.1 µM
COc1ccc(N/N=C2\S/C(=C(/C#N)C(=O)Nc3ccc(C)cc3)N(c3ccccc3)C2=O)cc1	> 103 µM	–	34.1 µM
N#C/C(C(=O)Nc1ccc(Cl)cc1)=c1/s/c(=C\c2ccccc2O)c(=O)n1-c1ccccc1	6.92 µM	7.89 µM	12.4 µM
Cc1ccc(NC(=O)/C(C#N)=c2\s/c(=C\c3ccccc3O)c(=O)n2-c2ccccc2)cc1	6.92 µM	> 110 µM	8.25 µM
COc1ccc(/C=c2\s/c(=C(/C#N)C(=O)Nc3ccccc3)n(-c3ccccc3)c2=O)cc1	6.61 µM	7.89 µM	30.4 µM
